These results are taken from PMC5477036, “Design and synthesis of biphenyl and biphenyl ether inhibitors of sulfatases” (Chemical Science, 2016).

Type in all cases: biochemical
For test [1], the target named is T1, Sulf-2 (Homo sapiens, UniProt Q8IWU5).
T1 construct: host or cells: 293T cells, transiently transfected
Briefly: Inhibition of Sulf-2-catalysed desulfation of 4-MUS to fluorescent MU. Conditions: for inhibition at 1000 µM: 1 mM compound, 4-MUS substrate, means of two or more determinations, read-out: Sulf-2% inh @ 1 mM; for IC50: non-linear regression, 7 inhibitor concentrations in duplicate, mean ± SEM. On the procedure:
(§1) Compounds were assayed for their ability to inhibit the Sulf-2-catalysed desulfation of 4-methylumbelliferyl sulfate (4-MUS) to the fluorescent 4-methylumbelliferone (MU). To determine their sulfatase selectivity, inhibition of aryl sulfatases A (ARSA) and B (ARSB) was also assessed. To date no suitable benchmark inhibitors of these sulfatase have been reported. […] In the majority of cases the presence of a substituent on the B-ring was detrimental to Sulf-2 inhibition when compared with unsubstituted biphenyl sulfamate 76. Aminosulfates 54 and 62 and carboxylic acid 15 retained potency. […] Compounds 8, 10, 15, 50 and 51 were also relatively potent ARSA inhibitors. […] Aminosulfates 56 and 63 were the best Sulf-2 inhibitors lacking a trichloroethylsulfamate group.
1 – Biological assay protocols
Compounds were screened using 4-MUS as a substrate for Sulf-2 according to a protocol described by Morimoto-Tomita et al.1 Briefly 293T cells were transiently transfected with pcDNA3.1/Myc-His(-)-HSulf-2 DNA (Addgene) and TransIT-LT1 Transfection Reagent (Mirus) using a transfection mixture at the ratio 1:3 (µg DNA:
µL transfection reagent) in Opti-MEM I reduced serum medium (Gibco). Conditioned medium containing Sulf-2 was collected after 3 days and bound to HIS-Select Nickel affinity gel (Sigma) overnight at 4 °C. Beads were washed three times with washing buffer containing 50 mM HEPES (pH 7.5), 300 mM NaCl, 0.05% Tween 20, followed by washing once with washing buffer containing no tween. Beads were suspended in 50 mM Hepes (pH 7.5) and used in inhibition assays. 20 μL of bead slurry was incubated with 1 mM compound (in DMSO) plus 10X reaction buffer (500 mM HEPES pH 7.5, 100 mM CaCl2) for 1 h at 37 °C. The reaction was started by the addition of 20 μL of 20 mM 4-MUS (final concentration of 8 mM) and incubated at 37 °C for 1 h. The reaction was stopped with 100 μL 1 M Tris buffer (pH 10.4) and read at 460 nm following excitation at 355 nm in FLUOstar Omega plate reader (BMG Labtech) using Omega data analysis software. […]

Test [2] deals with T2, aryl sulfatase A (ARSA) (Homo sapiens, UniProt P15289).
T2 construct: purchased R & D Systems
T2 sequence (P15289 19-507): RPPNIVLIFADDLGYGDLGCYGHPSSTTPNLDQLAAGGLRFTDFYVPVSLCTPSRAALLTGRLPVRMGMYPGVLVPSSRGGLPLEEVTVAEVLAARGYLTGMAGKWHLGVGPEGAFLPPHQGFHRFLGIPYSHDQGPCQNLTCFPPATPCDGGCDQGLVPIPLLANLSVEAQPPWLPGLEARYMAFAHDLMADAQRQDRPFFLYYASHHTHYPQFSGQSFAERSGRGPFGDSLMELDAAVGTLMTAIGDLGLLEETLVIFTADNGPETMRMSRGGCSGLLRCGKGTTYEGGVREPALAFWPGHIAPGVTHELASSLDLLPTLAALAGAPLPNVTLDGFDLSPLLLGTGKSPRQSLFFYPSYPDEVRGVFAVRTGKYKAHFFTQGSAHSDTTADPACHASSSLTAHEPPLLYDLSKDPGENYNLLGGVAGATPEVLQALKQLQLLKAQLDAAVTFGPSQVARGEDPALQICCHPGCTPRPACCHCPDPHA
The test can be described thus: ARSA inhibition assay with 4-MUS substrate. As to conditions: for inhibition at 1000 µM: 1 mM compound, 4-MUS substrate, means of two or more determinations, read-out: ARSA% inh @ 1 mM; for IC50: non-linear regression, 7 inhibitor concentrations in duplicate, mean ± SEM. The method, then: as §1
(§2) 1 – Biological assay protocols […]
(§3) Omega data analysis software.
(§4) ARSA and ARSB assay protocols
(§5) Compounds were screened in a 96-well black plate (Sterilin) using 4-MUS as a substrate, using 50 μL reaction mixture containing 40 ng of the commercially available enzymes (ARSA or ARSB from R & D Systems), 50 mM HEPES (pH = 4.5), 10 mM CaCl2, 1 mM test compound (dissolved in DMSO; final concentration of DMSO in reaction = 2%), and H2O (45 μL). The assay mixture was incubated for 1 h at 37 °C, followed by addition of 5 μL of 4-MUS (Km = 1.6 mM for ARSA and 612 μM for ARSB), and incubation for a further 1 h at 37 °C. The reaction was stopped with 100 μL of 1 M Tris (pH = 10.5) and read at 460 nm following excitation at 355 nm in FLUOstar Omega plate reader (BMG Labtech) using Omega data analysis software.

Test [3] has as its target T3, aryl sulfatase B (ARSB) (Homo sapiens, UniProt P15848).
T3 construct: purchased R & D Systems
The test can be described thus: ARSB inhibition assay with 4-MUS substrate. Conditions: for inhibition at 1000 µM: 1 mM compound, 4-MUS substrate, means of two or more determinations, read-out: ARSB% inh @ 1 mM; for IC50: non-linear regression, 7 inhibitor concentrations in duplicate, mean ± SEM. The method, then: as §1, §2, §3, §4, §5

T1 sequence (Q8IWU5 25-870): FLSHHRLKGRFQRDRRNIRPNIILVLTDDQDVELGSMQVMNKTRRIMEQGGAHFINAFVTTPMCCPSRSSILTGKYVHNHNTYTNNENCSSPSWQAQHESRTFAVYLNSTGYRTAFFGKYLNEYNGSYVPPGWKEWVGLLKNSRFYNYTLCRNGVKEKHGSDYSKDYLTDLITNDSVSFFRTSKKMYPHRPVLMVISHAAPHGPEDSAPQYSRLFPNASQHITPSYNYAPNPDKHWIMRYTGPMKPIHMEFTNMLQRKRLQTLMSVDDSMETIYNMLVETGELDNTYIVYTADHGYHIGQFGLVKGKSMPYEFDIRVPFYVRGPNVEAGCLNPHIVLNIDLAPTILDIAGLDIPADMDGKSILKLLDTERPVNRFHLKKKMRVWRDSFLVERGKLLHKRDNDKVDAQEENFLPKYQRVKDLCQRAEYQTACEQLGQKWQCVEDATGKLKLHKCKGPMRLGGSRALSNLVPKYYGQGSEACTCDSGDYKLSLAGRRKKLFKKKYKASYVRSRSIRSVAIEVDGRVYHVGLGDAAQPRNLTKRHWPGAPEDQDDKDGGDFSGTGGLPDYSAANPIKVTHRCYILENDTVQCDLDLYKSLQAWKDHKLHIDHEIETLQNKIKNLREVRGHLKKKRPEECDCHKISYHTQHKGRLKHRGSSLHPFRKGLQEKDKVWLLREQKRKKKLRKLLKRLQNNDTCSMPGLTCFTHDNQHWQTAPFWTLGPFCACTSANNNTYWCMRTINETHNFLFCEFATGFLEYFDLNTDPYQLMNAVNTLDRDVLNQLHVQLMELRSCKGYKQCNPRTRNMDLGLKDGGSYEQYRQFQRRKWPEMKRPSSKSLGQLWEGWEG
T3 sequence (P15848 37-533, species assumed): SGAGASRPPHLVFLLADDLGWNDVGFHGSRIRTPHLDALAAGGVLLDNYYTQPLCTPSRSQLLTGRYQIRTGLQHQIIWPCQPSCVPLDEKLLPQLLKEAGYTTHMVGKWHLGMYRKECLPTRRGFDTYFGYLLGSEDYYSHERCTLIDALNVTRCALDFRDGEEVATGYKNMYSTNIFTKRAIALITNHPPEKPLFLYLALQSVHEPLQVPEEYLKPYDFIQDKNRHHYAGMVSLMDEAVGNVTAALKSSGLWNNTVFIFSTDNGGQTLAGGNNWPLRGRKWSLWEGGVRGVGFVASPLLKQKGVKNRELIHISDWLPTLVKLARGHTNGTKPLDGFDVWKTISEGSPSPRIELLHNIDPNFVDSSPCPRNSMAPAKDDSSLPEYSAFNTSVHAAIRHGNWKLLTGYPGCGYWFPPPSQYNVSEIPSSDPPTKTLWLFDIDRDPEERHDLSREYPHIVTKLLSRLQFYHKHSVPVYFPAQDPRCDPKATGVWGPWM

Consider `COC(=O)c1ccccc1-c1cccc(OS(N)(=O)=O)c1` [Compound 8], for which the inhibition at 1000 µM in test [1] is 20%; in test [2], 86%; in test [3], 0%.
Turning to `NS(=O)(=O)Oc1cccc(-c2cccc(C(=O)O)c2)c1` [Compound 9], the inhibition at 1000 µM in test [1] was found to be 12%; in test [2] it was 59%; in test [3], 0%.
As to `NS(=O)(=O)Oc1cccc(-c2ccc(C(=O)O)cc2)c1` [Compound 10], the inhibition at 1000 µM in test [1] was 22%; in test [2], 85%; in test [3], 0%.
With `Nc1ccccc1-c1cccc(OS(N)(=O)=O)c1` [Compound 11], the inhibition at 1000 µM turned out to be 21% in test [1], 0% in test [2] and 0% in test [3].
With `Nc1cccc(-c2cccc(OS(N)(=O)=O)c2)c1` [Compound 12], the inhibition at 1000 µM in test [1] is 20%; in test [2], 0%; in test [3] it was 0%.
As to `Nc1ccc(-c2cccc(OS(N)(=O)=O)c2)cc1` [Compound 13], the inhibition at 1000 µM was found to be 6% in test [1], 61% in test [2] and 0% in test [3].
The like results for `NS(=O)(=O)Oc1cccc(-c2ccccc2C(=O)O)c1` [Compound 15] were, in that order, 31%, 98% and 0%.
On to `Nc1ccccc1Oc1cccc(OS(N)(=O)=O)c1` [Compound 25], for which the inhibition at 1000 µM in test [1] came out at 28%; in test [2] it was 75%; in test [3], 17%.
With `Nc1cccc(Oc2cccc(OS(N)(=O)=O)c2)c1` [Compound 26], the inhibition at 1000 µM was 31% in test [1], 75% in test [2] and 0% in test [3].
The like results for `Nc1ccc(Oc2cccc(OS(N)(=O)=O)c2)cc1` [Compound 27] were, in that order, 14%, 75% and 0%.
Turning to `CC(=O)Nc1ccccc1-c1cccc(OS(N)(=O)=O)c1` [Compound 34], the inhibition at 1000 µM in test [1] worked out at 4%; in test [2], 33%; in test [3], 0%.
With `CC(=O)Nc1cccc(-c2cccc(OS(N)(=O)=O)c2)c1` [Compound 35], the inhibition at 1000 µM turned out to be 8% in test [1], 52% in test [2] and 33% in test [3].
On to `CC(=O)Nc1ccc(-c2cccc(OS(N)(=O)=O)c2)cc1` [Compound 36], for which the results for the inhibition at 1000 µM in test [1], in test [2] and in test [3] were 3%, 0% and 0%, respectively.
For the molecule `CC(=O)Nc1ccccc1Oc1cccc(OS(N)(=O)=O)c1` [Compound 37], the results for the inhibition at 1000 µM in test [1], in test [2] and in test [3] were 11%, 29% and 48%, respectively.
On to `CC(=O)Nc1cccc(Oc2cccc(OS(N)(=O)=O)c2)c1` [Compound 38], for which the inhibition at 1000 µM in test [1] is 10%; in test [2], 57%; in test [3] it was 0%.
The matching figures for `CC(=O)Nc1ccc(Oc2cccc(OS(N)(=O)=O)c2)cc1` [Compound 39]: 14%, 45% and 0%.
The term IC50 denotes the point on the concentration scale where inhibition reaches its midpoint. The low end stands for greater potency, the high end for weaker potency. With `NS(=O)(=O)Oc1cccc(-c2cccc(NS(=O)(=O)OCC(Cl)(Cl)Cl)c2)c1` [Compound 50], the figures for the inhibition at 1000 µM in test [1], in test [2] and in test [3] were 99%, 92% and 67%, respectively. Also, the IC50 in test [1] amounted to 167 ± 5 µM; in test [2], 55 ± 11 µM; in test [3], 130 ± 6 µM.
Take `NS(=O)(=O)Oc1cccc(-c2ccc(NS(=O)(=O)OCC(Cl)(Cl)Cl)cc2)c1` [Compound 51]: the inhibition at 1000 µM was determined as 96% in test [1], 99% in test [2] and 68% in test [3]. The IC50 in test [1] turned out to be 566 ± 28 µM; in test [2], 91 ± 4 µM; in test [3] it was 101 ± 8 µM.
Take `NS(=O)(=O)Oc1cccc(Oc2cccc(NS(=O)(=O)OCC(Cl)(Cl)Cl)c2)c1` [Compound 52]: the results for the inhibition at 1000 µM in test [1], in test [2] and in test [3] were 100%, 100% and 96%, respectively.
On to `NS(=O)(=O)Oc1cccc(Oc2ccc(NS(=O)(=O)OCC(Cl)(Cl)Cl)cc2)c1` [Compound 53], for which the inhibition at 1000 µM is 98% in test [1], 96% in test [2] and 86% in test [3]. For the same molecule, the IC50 in test [1] was found to be 390 ± 11 µM; in test [2], 108 ± 2 µM; in test [3], 116 ± 10 µM.
Regarding `NS(=O)(=O)Oc1cccc(-c2cccc(NS(=O)(=O)O)c2)c1` [Compound 54], the figures for the inhibition at 1000 µM in test [1], in test [2] and in test [3] were 31%, 0% and 0%, respectively.
For `NS(=O)(=O)Oc1cccc(-c2ccc(NS(=O)(=O)O)cc2)c1` [Compound 55], the inhibition at 1000 µM in test [1] was 4%; in test [2], 0%; in test [3], 0%.
In the case of `NS(=O)(=O)Oc1cccc(Oc2cccc(NS(=O)(=O)O)c2)c1` [Compound 56], the values for the inhibition at 1000 µM in test [1], in test [2] and in test [3] were 58%, 95% and 85%, respectively.
For `NS(=O)(=O)Oc1cccc(Oc2ccc(NS(=O)(=O)O)cc2)c1` [Compound 57], the figures for the inhibition at 1000 µM in test [1], in test [2] and in test [3] were 13%, 34% and 77%, respectively.
`NS(=O)(=O)Oc1cccc(-c2ccccc2N(S(=O)(=O)OCC(Cl)(Cl)Cl)S(=O)(=O)OCC(Cl)(Cl)Cl)c1` [Compound 60]: the inhibition at 1000 µM in test [1] came out at 10%; in test [2] it was 63%; in test [3], 0%.
The matching figures for `NS(=O)(=O)Oc1cccc(Oc2ccccc2N(S(=O)(=O)OCC(Cl)(Cl)Cl)S(=O)(=O)OCC(Cl)(Cl)Cl)c1` [Compound 61]: 18%, 82% and 40%.
For the molecule `NS(=O)(=O)Oc1cccc(-c2ccccc2NS(=O)(=O)O)c1` [Compound 62], the inhibition at 1000 µM in test [1] turned out to be 37%; in test [2], 26%; in test [3], 0%.
`NS(=O)(=O)Oc1cccc(Oc2ccccc2NS(=O)(=O)O)c1` [Compound 63]: the values for the inhibition at 1000 µM in test [1], in test [2] and in test [3] were 56%, 54% and 93%, respectively.
With `NS(=O)(=O)Oc1cccc(Oc2ccccc2C(=O)O)c1` [Compound 73], the inhibition at 1000 µM in test [1] came to 10%; in test [2] it was 44%; in test [3], 0%.
Turning to `CN(C)S(=O)(=O)Oc1cccc(-c2ccccc2)c1` [Compound 77], in test [1], the inhibition at 1000 µM came to 0%.
With `NS(=O)(=O)Oc1cccc(Oc2ccccc2)c1` [Compound 78], in test [1], the inhibition at 1000 µM is 32%.
